Laboratory results taken from patent US20240059703A1 (AMGEN INC., priority 2021, published 2024).

Assays:
KRAS G12C = KRAS G12C (Homo sapiens (Human), UniProt P01116, C118A/G12C); assay: 2 h coupled exchange assay; format: biochemical; details: Avg 2 h Coupled exchange IC50, 2 h compound pre-incubation
Description: The term “2 h coupled exchange assay” or “20 h coupled exchange assay” as used herein refers to the assay described in the Section entitled “BIOLOGICAL EVALUATION.”

[1] = test system: MIA PaCa-2 (human pancreatic carcinoma) cells; assay: Cell Viability Assay (CellTiter-Glo), MIA PaCa-2; format: cell-based
Description: (§1) Serially-diluted compound or DMSO was added to the cells, and plates were incubated at 37° C., 5% CO2 for 72 h. Cell viability was measured using a CellTiter-Glo® Luminescent Cell Viability Assay kit (Promega) according to the manufacturer's protocol. The luminescence signal of treated samples was normalized to DMSO control, and data were analyzed using a 4-parameter logistic model to calculate IC50 values.

[2] = test system: A549 (human lung carcinoma) cells; assay: Cell Viability Assay (CellTiter-Glo), A549; format: cell-based
Description: as §1, with “MIA PaCa-2 (human pancreatic carcinoma; ATCC CRL-1420) or A549 (human lung carcinoma; ATCC CCL-185) cells were cultured in RPMI 1640 medium containing 10% fetal bovine serum and 1× penicillin/streptomycin/L-glutamine. Cells were seeded in 384-well plates at a density of 1.67E+04 cells/mL and incubated at 37° C., 5% CO2, overnight. Serially-diluted” for “Serially-diluted”

[3] = SOS-mediated nucleotide exchange

KRAS G12C, sequence (P01116 other isoform, or with tags, fused parts or gaps G12C/C118A): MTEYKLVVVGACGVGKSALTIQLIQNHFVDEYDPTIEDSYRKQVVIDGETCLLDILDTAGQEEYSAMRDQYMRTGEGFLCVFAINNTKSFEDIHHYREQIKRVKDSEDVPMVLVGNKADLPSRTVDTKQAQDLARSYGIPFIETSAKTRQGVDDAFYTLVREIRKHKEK

IC50 (KRAS G12C) [nM]	IC50 ([1]; Homo sapiens, MIA PaCa-2, 72 h) [nM]	IC50 ([2]; Homo sapiens, A549, 72 h) [nM]	IC50 (KRAS G12C; [3]) [nM]	IC50 ([1]; 72 h) [nM]	IC50 ([2]; 72 h) [nM]	SMILES
58	143	> 5000				C=CC(=O)N1CC2(CCN(c3nc4c(c(-c5cccc6cn[nH]c56)c3C#N)C[C@H]3C[C@@H]4C3(C)C)C2)C1 (single isomer, unassigned) [Example 14-29]
	13	> 5000	53			C=CC(=O)N1CC2(CCN(c3nc4c(c(-c5c(C)ccc6[nH]ncc56)c3C#N)C[C@H]3C[C@@H]4C3(C)C)C2)C1 [Example 13-93, (6R,8R)-2-(2-acryloyl-2,6-diazaspiro[3.4]octan-6-yl)-7,7-dimethyl-4-(5-methyl-1H-indazol-4-yl)-5,6,7,8-tetrahydro-6,8-methanoquinoline-3-carbonitrile]
	70	2040	19			C=CC(=O)N1CC2(CCN(c3cc4c(c(-c5c(C)ccc6[nH]ncc56)c3C#N)CCCC4)C2)C1 [Example 2-93, 1-(5-methyl-1H-indazol-4-yl)-3-(2-(2-propenoyl)-2,6-diazaspiro[3.4]octan-6-yl)-5,6,7,8-tetrahydro-2-naphthalenecarbonitrile]
393	5400	> 25000				C=CC(=O)N1CC2(CCN(c3nc4c(c(-c5cc(O)ccc5Cl)c3C#N)CN(Cc3scnc3C)C4)C2)C1 [Example 21-12, 4-(2-chloro-5-hydroxyphenyl)-6-((4-methyl-1,3-thiazol-5-yl)methyl)-2-(2-(2-propenoyl)-2,6-diazaspiro[3.4]octan-6-yl)-6,7-dihydro-5H-pyrrolo[3,4-b]pyridine-3-carbonitrile]
	159	> 5000	71			C=CC(=O)N1CC2(CCN(c3nc4c(c(-c5cc(O)ccc5C)c3Cl)COC(C)(C)C4)C2)C1 [Example 2-79, 1-(6-(3-chloro-4-(5-hydroxy-2-methylphenyl)-7,7-dimethyl-7,8-dihydro-5H-pyrano[4,3-b]pyridin-2-yl)-2,6-diazaspiro[3.4]octan-2-yl)-2-propen-1-one]
114	1500	5370				C=CC(=O)N1CC2(CCN(c3nc4c(c(-c5cccc(F)c5F)c3C#N)CCC(c3scnc3C)=C4)C2)C1 [Example 23-46, 4-(2,3-difluorophenyl)-7-(4-methyl-1,3-thiazol-5-yl)-2-(2-(2-propenoyl)-2,6-diazaspiro[3.4]octan-6-yl)-5,6-dihydro-3-quinolinecarbonitrile]
28	9	> 5000				C=CC(=O)N1CC2(CCN(c3nc4c(c(-c5c(C)c(Cl)cc6cnn(C)c56)c3C#N)COC(C)(C)C4)C2)C1 [Example 14-92, 4-(5-chloro-1,6-dimethyl-1H-indazol-7-yl)-7,7-dimethyl-2-(2-(2-propenoyl)-2,6-diazaspiro[3.4]octan-6-yl)-7,8-dihydro-5H-pyrano[4,3-b]pyridine-3-carbonitrile]
	294	6250	103			C=CC(=O)N1CC2(CCN(c3cn4cc(-c5ccccc5)nc4c(-c4c(C)ccc5[nH]ncc45)c3C#N)C2)C1 [Example 1-38, 8-(5-methyl-1H-indazol-4-yl)-2-phenyl-6-(2-(2-propenoyl)-2,6-diazaspiro[3.4]octan-6-yl)imidazo[1,2-al]yridine-7-carbonitrile]
8				107	3800	C=CC(=O)N1CC2(CCN(c3nc4c(c(-c5ccccc5C)c3C#N)CC[C@@H](c3scnc3C)C4)C2)C1 (single isomer, unassigned) [Example 23-5]
26	164	12600				C=CC(=O)N1CC2(CCN(c3nc4c(c(-c5ccccc5C)c3C#N)CCC(c3scnc3C)C4)C2)C1 [Example 23-2, (7R)-4-(2-methylphenyl)-7-(4-methyl-1,3-thiazol-5-yl)-2-(2-(2-propenoyl)-2,6-diazaspiro[3.4]octan-6-yl)-5,6,7,8-tetrahydro-3-quinolinecarbonitrile (7S)-4-(2-methylphenyl)-7-(4-methyl-1,3-thiazol-5-yl)-2-(2-(2-propenoyl)-2,6-diazaspiro[3.4]octan-6-yl)-5,6,7,8-tetrahydro-3-quinolinecarbonitrile]
	218	3370	44			Cc1ccc2[nH]ncc2c1-c1c(C#N)c(N2CCC3(CN(C(=O)/C=C/C(F)F)C3)C2)nc2c1CCC(C)(C)C2 [Example 13-8, 2-(2-((2E)-4,4-difluoro-2-butenoyl)-2,6-diazaspiro[3.4]octan-6-yl)-7,7-dimethyl-4-(5-methyl-1H-indazol-4-yl)-5,6,7,8-tetrahydro-3-quinolinecarbonitrile]
853	2820	10200				C=CC(=O)N1CC2(CCN(c3nc4c(c(-c5ccc(F)cc5F)c3C#N)CCN(C(C)C)C4)[C@H]2C)C1 [Example 21-18, 4-(2,4-difluorophenyl)-2-((5S)-5-methyl-2-(2-propenoyl)-2,6-diazaspiro[3.4]octan-6-yl)-7-(2-propanyl)-5,6,7,8-tetrahydro-1,7-naphthyridine-3-carbonitrile]
208	254	10000				C=CC(=O)N1CC2(CCN(c3nc4c(c(-c5c(C)ccc6cn[nH]c56)c3C)CC[C@H](c3c(C)cnn3C)C4)C2)C1 (single isomer, unassigned) [Example 14-97]
108	931	5110				C=CC(=O)N1CC2(CCN(c3nc4c(c(-c5ccc(F)cc5F)c3C#N)CCN(c3scnc3C)C4)[C@H]2C)C1 [Example 21-16, 4-(2,4-difluorophenyl)-2-((5S)-5-methyl-2-(2-propenoyl)-2,6-diazaspiro[3.4]octan-6-yl)-7-(4-methyl-1,3-thiazol-5-yl)-5,6,7,8-tetrahydro-1,7-naphthyridine-3-carbonitrile]
	2060	6250	173			C=CC(=O)N1CC2(CCN(c3nc4ccccc4c(-c4cc(O)cc5ccccc45)c3C#N)C2)C1 [Example 2-4, 4-(3-hydroxy-1-naphthalenyl)-2-(2-(2-propenoyl)-2,6-diazaspiro[3.4]octan-6-yl)-3-quinolinecarbonitrile]
38				366	> 5000	C=CC(=O)N1CC2(CCN(c3nc4cc(-c5scnc5C)cnc4c(-c4cccc(C)c4C)c3C#N)C2)C1 (single isomer, unassigned) [Example 19-14, (P)-4-(2,3-dimethylphenyl)-7-(4-methyl-1,3-thiazol-5-yl)-2-(2-(2-propenoyl)-2,6-diazaspiro[3.4]octan-6-yl)-1,5-naphthyridine-3-carbonitrile]
	58	> 5000	64			C=CC(=O)N1CC2(CCN(c3nc4c(c(-c5cc(O)cc(C)c5Cl)c3C#N)COC(C)(C)C4)C2)C1 [Example 13-153, 4-(2-chloro-5-hydroxy-3-methylphenyl)-7,7-dimethyl-2-(2-(2-propenoyl)-2,6-diazaspiro[3.4]octan-6-yl)-7,8-dihydro-5H-pyrano[4,3-b]pyridine-3-carbonitrile]
67	671	> 5000				C=CC(=O)N1CC2(CCN(c3nc4cc(-c5scnc5C)cnc4c(-c4cccc(C)c4C)c3C#N)C2)C1 (single isomer, unassigned) [Example 19-13, (M)-4-(2,3-dimethylphenyl)-7-(4-methyl-1,3-thiazol-5-yl)-2-(2-(2-propenoyl)-2,6-diazaspiro[3.4]octan-6-yl)-1,5-naphthyridine-3-carbonitrile]
	> 5000	> 5000	71			C=CC(=O)N1CC2(CCN(c3nc4c(c(-c5cc(O)ccc5C)c3C#N)C[C@H]3C[C@@H]4C3)C2)C1 [Example 13-113, (1S,9S)-6-(5-hydroxy-2-methylphenyl)-4-(2-(2-propenoyl)-2,6-diazaspiro[3.4]octan-6-yl)-3-azatricyclo[7.1.1.0^2,7]undeca-2,4,6-triene-5-carbonitrile]
			134	1320	> 5000	C=CC(=O)N1CC2(CCN(c3nc4cc(F)ccc4c(-c4c(C)ccc5[nH]ncc45)c3C)[C@H]2C)C1 (single isomer, unassigned) [Example 2-61]
546	852	13400				C=CC(=O)N1CC2(CCN(c3nc4c(c(-c5ccccc5Cl)c3C)CCC(c3c(C)cnn3C)C4)C2)C1 [Example 14-96, 1-(6-((7R)-4-(2-chlorophenyl)-7-(1,4-dimethyl-1H-pyrazol-5-yl)-3-methyl-5,6,7,8-tetrahydro-2-quinolinyl)-2,6-diazaspiro[3.4]octan-2-yl)-2-propen-1-one|1-(6-((7S)-4-(2-chlorophenyl)-7-(1,4-dimethyl-1H-pyrazol-5-yl)-3-methyl-5,6,7,8-tetrahydro-2-quinolinyl)-2,6-diazaspiro[3.4]octan-2-yl)-2-propen-1-one]
